Entries after “also recorded” stand apart in the source; their conditions may differ.
Assay: Peptide partition from solution to membrane followed by tryptophan intrinsic fluorescence titration
Format: physicochemical
Details: for ability to interact with / partition into membranes: tryptophan fluorescence and CD; for ΔG (free energy of membrane partition): ΔG=−RTln(KX)
Protocol: Small unilamellar vesicles (SUVs) were prepared at a lipid concentration of 10 mM from POPC and POPG at a molar ratio of 10:0 or 8:2 or from DOPC, DOPE, DOPG, Chol at molar ratio 10:0:0:0, 8:0:2:0, 7:3:0:0, 7:0:0:3, 6:3:0:1, and 4:3:2:1 in buffer A, as previously described. Briefly, SUVs were prepared by reverse-phase evaporation and passed through polycarbonate filters 0.8-, 0.4-, and 0.2-μm (Merck Millipore, Darmstadt, Germany). Vesicles were sonicated using a sonicator tip and their hydrodynamic diameters, dispersity, and charge were checked by dynamic light scattering (DLS) and electrophoretic mobility using a NanoZS instrument (Malvern Instruments, Orsay, France).
Fluorescence titrations were performed with a FP-8200 Jasco spectrofluorimeter, equipped with a Peltier-thermostated ETC-272T (25 °C). A bandwidth of 5 nm was used for both excitation and emission beams. Fluorescence experiments were carried out in a 109.004F-QS cuvette (Hellma, France) with constant stirring. Fluorescence emission was recorded between 300 and 400 nm at a scan rate of 200 nm/min, with an excitation wavelength of 280 nm. Fluorescence emission spectra were corrected for SUV light scattering. Maximum emission wavelength (λmax) and fluorescence intensity ratio at 330 nm over 370 nm (P454-derived peptides) or at 340 nm over 380 nm (CyaA-derived peptides) were used to report peptide-membrane interaction and to measure the partition coefficient KX.
The partition coefficient KX is defined as the ratio of protein concentrations in the lipid and in buffer phases. It is expressed as follows:
KX=PL/PW·[W]/[L] , providing PW/PL=[W]/KX[L] , where PW is the concentration of peptide in solution, PL the concentration of peptides partitioning into lipid membrane, [W] represents the concentration of water, and [L] the lipid concentration.
The fraction of peptide partitioned into the membrane phase, fPL, is equal to: fPL=PL/PT=PL/PL+PW=1/(PW/PL)+1=1/([W]/KX[L])+1
The partition coefficient is related to the apparent dissociation constant as follows: KX * KD = [W] with KD * PL = PW * [L]. The equation fPL is fitted to the experimental data using the KaleidaGraph software, providing KX. The free energy corresponding to the transfer of the peptide from the aqueous phase to the lipid phase is given by the equation ΔG=−RTln(KX) , where ΔG is the free energy in kcal/mol, R the gas constant (R = 1.98 × 10^−3 kcal/mol/K), and T the temperature in Kelvin.

[1] = SUVs DOPC/DOPE/DOPG/Chol 4:3:2:1, Trp fluorescence titration (exc. 280 nm, ratio 340/380 nm), 20 mM HEPES, 150 mM NaCl, pH 7.4, 25 °C
[2] = SUVs DOPC/DOPE/DOPG/Chol 4:3:2:1
[3] = SUVs DOPC/DOPE/DOPG/Chol 4:3:2:1, pH 7.4, 25 °C
[4] = SUVs DOPC/DOPG 8:2, Trp fluorescence titration (exc. 280 nm, ratio 330/370 nm), 20 mM HEPES, 150 mM NaCl, pH 7.4, 25 °C, S.D. within ±5%
[5] = SUVs DOPC/DOPG 8:2, pH 7.4, 25 °C, S.D. ±0.1 kcal/mol
[6] = SUVs DOPC, Trp fluorescence titration (exc. 280 nm, ratio 330/370 nm), 20 mM HEPES, 150 mM NaCl, pH 7.4, 25 °C, S.D. within ±5%
[7] = SUVs DOPC, pH 7.4, 25 °C, S.D. ±0.1 kcal/mol
[8] = SUVs POPC/POPG 8:2, Trp fluorescence titration (exc. 280 nm, ratio 330/370 nm), 20 mM HEPES, 150 mM NaCl, pH 7.4, 25 °C, S.D. within ±5%
[9] = SUVs POPC/POPG 8:2, pH 7.4, 25 °C, S.D. ±0.1 kcal/mol
[10] = SUVs POPC, Trp fluorescence titration (exc. 280 nm, ratio 330/370 nm), 20 mM HEPES, 150 mM NaCl, pH 7.4, 25 °C, S.D. within ±5%
[11] = SUVs POPC, pH 7.4, 25 °C, S.D. ±0.1 kcal/mol

Molecule | partition coefficient KX [1] | ability to interact with / partition into membranes [2] | ΔG (free energy of membrane partition) [3] [kcal/mol] | partition coefficient KX [4] | ΔG (free energy of membrane partition) [5] [kcal/mol] | partition coefficient KX [6] | ΔG (free energy of membrane partition) [7] [kcal/mol] | partition coefficient KX [8] | ΔG (free energy of membrane partition) [9] [kcal/mol] | partition coefficient KX [10] | ΔG (free energy of membrane partition) [11] [kcal/mol] | further results
CC[C@H](C)[C@H](NC(=O)[C@H](CCCCN)NC(=O)[C@H](Cc1c[nH]c2ccccc12)NC(=O)[C@H](CC(C)C)NC(=O)[C@H](CC(C)C)NC(=O)[C@H](CC(=O)O)NC(=O)[C@@H](NC(=O)[C@H](CCCNC(=N)N)NC(=O)[C@H](CCC(=O)O)NC(=O)[C@H](CCCNC(=N)N)NC(=O)[C@H](CC(=O)O)NC(=O)[C@H](CC(C)C)NC(C)=O)[C@@H](C)CC)C(=O)N[C@@H](C)C(=O)N[C@@H](CCCNC(=N)N)C(=O)N[C@@H](C)C(=O)NCC(=O)N[C@@H](C)C(=O)N[C@@H](CCCNC(=N)N)C(=O)N[C@@H](CO)C(=O)N[C@@H](C)C(=O)N[C@H](C(=O)NCC(N)=O)C(C)C [Peptide P233] | 60 000 | able to interact with membranes | -6.5 | – | – | – | – | – | – | – | – | –
CC[C@H](C)[C@H](NC(=O)[C@H](C)NC(=O)[C@H](Cc1c[nH]cn1)NC(=O)[C@@H](NC(=O)[C@H](CC(C)C)NC(=O)[C@H](CCCNC(=N)N)NC(=O)[C@H](CCC(N)=O)NC(=O)[C@H](C)NC(=O)[C@H](C)NC(=O)[C@H](C)NC(=O)[C@@H](NC(=O)[C@H](C)NC(=O)[C@H](CCC(N)=O)NC(=O)[C@H](C)NC(=O)CNC(=O)[C@H](CCC(N)=O)NC(=O)[C@H](CC(C)C)NC(=O)[C@H](C)NC(=O)[C@H](CCCNC(=N)N)NC(=O)[C@H](CCC(N)=O)NC(=O)CNC(=O)[C@H](Cc1c[nH]c2ccccc12)NC(=O)[C@H](Cc1c[nH]cn1)NC(=O)[C@H](C)NC(=O)[C@H](CO)NC(=O)[C@H](C)NC(C)=O)C(C)C)C(C)C)C(=O)N[C@@H](C)C(=O)N[C@@H](CC(C)C)C(=O)N[C@@H](CCSC)C(=O)N[C@H](C(=O)N[C@@H](CCC(N)=O)C(N)=O)[C@@H](C)O [Peptide P454] | 300 000 | able to interact with membranes | -7.4 | 1 200 000 | -8.3 | 505 000 | -7.8 | 790 000 | -8 | 150 000 | -7 | membrane partition on addition of both POPE and cholesterol to POPC (POPC with POPE and cholesterol, data not shown): totally abolishes the partition; partition coefficient KX (SUVs DOPC/Chol 7:3, Trp fluorescence titration, pH 7.4, 25 °C, S.D. within ±5%): 60 000; ΔG (free energy of membrane partition) (SUVs DOPC/Chol 7:3, pH 7.4, 25 °C): -6.5 kcal/mol; partition coefficient KX (SUVs DOPC/DOPE 7:3, Trp fluorescence titration, pH 7.4, 25 °C, S.D. within ±5%): 80 000; ΔG (free energy of membrane partition) (SUVs DOPC/DOPE 7:3, pH 7.4, 25 °C): -6.7 kcal/mol; partition coefficient KX (SUVs DOPC/DOPE/Chol 6:3:1, Trp fluorescence titration, pH 7.4, 25 °C, S.D. within ±5%): 40 000; ΔG (free energy of membrane partition) (SUVs DOPC/DOPE/Chol 6:3:1, pH 7.4, 25 °C): -6.3 kcal/mol; ΔΔG, net contribution of arginine residues to partition compared to the lysine residues of R12K (native P454 vs R12K, all membrane lipid compositions tested): ~0.5 ± 0.2 kcal/mol
Ac-APEVIARADNDVNSSLAHGW-NH2 [Peptide P89] | – | no detectable change of tryptophan fluorescence or CD signature; also recorded: do not | – | – | – | – | – | – | – | – | – | –
Ac-ASAHWGQAALQGAQAVAAAQALVHAIALMTQ-NH2 [P454 R12A] | – | – | – | 795 000 | -8 | 610 000 | -7.9 | 275 000 | -7.4 | 195 000 | -7.2 | –
Ac-ASAHWGQEALQGAQAVAAAQELVHAIALMTQ-NH2 [P454 R12E] | – | – | – | 70 000 | -6.6 | 85 000 | -6.7 | 30 000 | -6.1 | 7 000 | -5.2 | –
Ac-ASAHWGQKALQGAQAVAAAQKLVHAIALMTQ-NH2 [P454 R12K] | – | – | – | 750 000 | -8 | 265 000 | -7.4 | 215 000 | -7.3 | 60 000 | -6.5 | –
Ac-ASAHWGQQALQGAQAVAAAQQLVHAIALMTQ-NH2 [P454 R12Q] | – | – | – | 310 000 | -7.5 | 195 000 | -7.2 | 70 000 | -6.6 | 35 000 | -6.2 | –
Ac-ASAHWGQQALQGAQAVAAAQRLVHAIALMTQ-NH2 [P454 R1Q] | – | – | – | 670 000 | -7.9 | 340 000 | -7.5 | 190 000 | -7.2 | 75 000 | -6.6 | –
Ac-ASAHWGQRALQGAQAVAAAQQLVHAIALMTQ-NH2 [P454 R2Q] | – | – | – | 655 000 | -7.9 | 260 000 | -7.4 | 150 000 | -7 | 90 000 | -6.7 | –
Ac-AYFEKNLQARHEQLANSDGLRKMLADLQAGWNASS-NH2 [Peptide P737] | 20 000 | able to interact with membranes | -5.8 | – | – | – | – | – | – | – | – | –
Ac-EASSAVAETVSGFFRGW-NH2 [Peptide P509] | 80 000 | able to interact with membranes | -6.7 | – | – | – | – | – | – | – | – | –
Ac-IIEKLANDYARKIDELGW-NH2 [Peptide P717] | 60 000 | able to interact with membranes | -6.5 | – | – | – | – | – | – | – | – | –
Ac-IPAAVLDGIKAVAKEKNW-NH2 [Peptide P19] | – | no detectable change of tryptophan fluorescence or CD signature; also recorded: do not | – | – | – | – | – | – | – | – | – | –
Ac-LVQQSHYADQLDKLAQESSAYGW-NH2 [Peptide P626] | – | no detectable change of tryptophan fluorescence or CD signature; also recorded: do not | – | – | – | – | – | – | – | – | – | –
Ac-QEAASLSAAVFGLGEASSAVAETVSGFFRGW-NH2 [Peptide P495] | 130 000 | able to interact with membranes | -6.9 | – | – | – | – | – | – | – | – | –
Ac-TTEISKSALELAAITGNW-NH2 [Peptide P777] | – | no detectable change of tryptophan fluorescence or CD signature; also recorded: do not | – | – | – | – | – | – | – | – | – | –
